{
  "source": "patent US20150111833A1",
  "about": "“Method Of Treating An Ocular Disease And Compositions Effective For Treating An Ocular Disease” (Howard University, priority 2012, published 2015)",
  "test_system": "endophthalmitis",
  "experiment": "Combination therapy treatment of severe endophthalmitis in a human subject (case report)",
  "type": "in vivo",
  "conditions": "initial regimen without cyclosporin A: intravitreal Vancomycin and Ceftazidime, then Ceftazidime, Vancomycin and Prednisolone eye drops every two hours; over the next two days",
  "procedure": "A uniocular subject was diagnosed with severe endophthalmitis in their only functioning eye. […] The subject was treated with an aggressive treatment regimen of antibiotics (Intra Vitreal injection of Vancomycin and Ceftazidime) followed by Ceftazidime eye drops. Vancomycin eye drops and steroid Prednisolone eye drops every two hours.\nCyclosporin A (sold as […]® from Allergan, Inc.) was added to the treatment regimen and was administered prior to administering the antibiotic and steroid eye drops.\nThe Ceftriaxone was added to the regimen to increase the aggressiveness of the therapy with the goal of preventing or eliminating any traces of infection in the retina, which can result in irreversible blindness.",
  "data": [
    {"smiles": "CC(C)(O/N=C(\\C(=O)N[C@@H]1C(=O)N2C(C(=O)[O-])=C(C[n+]3ccccc3)CS[C@H]12)c1csc(N)n1)C(=O)O", "note": "[Ceftazidime]", "values": [
      {"measurement": "improvement of the subject", "result": "no improvement"}
    ]},
    {"smiles": "CN[C@H](CC(C)C)C(=O)N[C@H]1C(=O)N[C@@H](CC(N)=O)C(=O)N[C@H]2C(=O)N[C@H]3C(=O)N[C@H](C(=O)N[C@H](C(=O)O)c4cc(O)cc(O)c4-c4cc3ccc4O)[C@H](O)c3ccc(c(Cl)c3)Oc3cc2cc(c3O[C@@H]2O[C@H](CO)[C@@H](O)[C@H](O)[C@H]2O[C@H]2C[C@](C)(N)[C@H](O)[C@H](C)O2)Oc2ccc(cc2Cl)[C@H]1O", "note": "[Vancomycin]", "values": [
      {"measurement": "improvement of the subject", "result": "no improvement"}
    ]},
    {"smiles": "C[C@]12C=CC(=O)C=C1CC[C@@H]1[C@@H]2[C@@H](O)C[C@@]2(C)[C@H]1CC[C@]2(O)C(=O)CO", "note": "[Prednisolone]", "values": [
      {"measurement": "improvement of the subject", "result": "no improvement"}
    ]}
  ]
}
